Measured values from patent publication US20240279302A1, “OLFACTORY RECEPTOR EXPRESSING METHOD AND RESPONSE MEASUREMENT METHOD” (Kao Corporation, priority 2021, published 2024).

Experiments:
[1] = biological target: OR4E2 (Homo sapiens, UniProt Q8NGC2); conditions: in the presence of a metal ion (JP-A-2020-513564); cited from earlier work
[2] = biological target: T1, OR4S2 (original olfactory receptor) (Homo sapiens, UniProt Q8NH73); assay: Luciferase assay, sulfur compounds; type: cell-based
T1 construct: expressed in transfected cells; host or cells: HEK293
T1 sequence (Q8NH73 1-311): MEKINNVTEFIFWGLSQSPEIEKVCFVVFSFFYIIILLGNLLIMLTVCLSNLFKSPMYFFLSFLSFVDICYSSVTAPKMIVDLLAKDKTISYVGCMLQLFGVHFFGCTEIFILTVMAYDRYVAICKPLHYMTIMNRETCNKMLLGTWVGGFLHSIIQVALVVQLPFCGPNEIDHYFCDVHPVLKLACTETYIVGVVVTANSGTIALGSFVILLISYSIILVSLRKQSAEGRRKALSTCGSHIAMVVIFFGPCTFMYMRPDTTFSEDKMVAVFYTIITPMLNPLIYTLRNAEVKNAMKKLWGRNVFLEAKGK
Description: (§1) A reaction solution as to each consensus olfactory receptor prepared in Examples described above was prepared according to the composition shown in Table 4, left standing for 20 minutes in a clean bench, and then added to each well of a 96-well plate (Becton, Dickinson and Company). The original olfactory receptor was used as to OR4S2. Composition shown in Table 20 was used as to OR11H2 and OR4E2. Subsequently, 100 μL of HEK293 cells suspended in DMEM (Nacalai Tesque, Inc.) was inoculated at 2×10^5 cells/cm^2 to each well, and cultured for 24 hours in an incubator kept at 37° C. and 5% CO2. Cells expressing no olfactory receptor (Mock) were provided as a control.
(§2) The medium was removed from the cultures prepared in 1), and 75 μL of a test substance solution (methyl mercaptan (MeSH) (CAS: 74-93-1, Tokyo Chemical Industry Co., Ltd.), dimethyl sulfide (DMS) (CAS: 75-18-3, FUJIFILM Wako Pure Chemical Corp.), dimethyl disulfide (DMDS) (CAS: 624-92-0, Tokyo Chemical Industry Co., Ltd.), concentration range: 0 μM, 1 μM, 3 μM, 10 μM, 30 μM, 100 μM, and 300 μM, or dimethyl trisulfide (DMTS) (CAS: 3658-80-8, Tokyo Chemical Industry Co., Ltd.), concentration range: 0 μM, 0.1 μM, 0.3 μM, 1 μM, 3 μM, 10 μM, and 30 μM) prepared with a fresh medium was added thereto. Under a copper ion addition condition, the test substance solution was adjusted to contain 30 μM copper(II) chloride (FUJIFILM Wako Pure Chemical Corp.) in addition to the odorant. The cells were cultured for 4 hours in a CO2 incubator and the luciferase gene was expressed sufficiently in the cells. Luciferase activity was measured using Dual-Glo™ luciferase assay system (Promega Corp.) in accordance with the operation manual of the product. A luminescence value derived from firefly luciferase induced by test substance stimulation in each well of the 96-well plate was divided by a luminescence value derived from Renilla luciferase to calculate a value (fluc/hRluc) as a signal, which was then used in analysis. The signal under each transfection condition was normalized with the signal value (fluc/hRluc) under an odorant stimulation-free condition defined as 0% and the signal value (fluc/hRluc) by stimulation with 10 μM forskolin defined as 100%, and used as a response (%) in analysis.

[3] = biological target: T2, consensus OR11H2 (Homo sapiens, UniProt Q8NH07, A157T/A61V/C266F/D203A/E289A/F213L/F41L/F62C/G242R/I210T/I230L/I288V/I49T/K181M/K238L/L128F/L146H/L162I/M76I/N106T/N25R/P269S/Q137R/Q308R/Q30L/R68Q/S246A/S268G/T131A/T283A/T37K/V63A/Y156C); assay: Luciferase assay, sulfur compounds; type: cell-based
T2 construct: expressed in transfected cells; host or cells: HEK293
T2 sequence (Q8NH07 12-326 N25R/Q30L/T37K/F41L/I49T/A61V/F62C/V63A/R68Q/M76I/N106T/L128F/T131A/Q137R/L146H/Y156C/A157T/L162I/K181M/D203A/I210T/F213L/I230L/K238L/G242R/S246A/C266F/S268G/P269S/T283A/I288V/E289A/Q308R): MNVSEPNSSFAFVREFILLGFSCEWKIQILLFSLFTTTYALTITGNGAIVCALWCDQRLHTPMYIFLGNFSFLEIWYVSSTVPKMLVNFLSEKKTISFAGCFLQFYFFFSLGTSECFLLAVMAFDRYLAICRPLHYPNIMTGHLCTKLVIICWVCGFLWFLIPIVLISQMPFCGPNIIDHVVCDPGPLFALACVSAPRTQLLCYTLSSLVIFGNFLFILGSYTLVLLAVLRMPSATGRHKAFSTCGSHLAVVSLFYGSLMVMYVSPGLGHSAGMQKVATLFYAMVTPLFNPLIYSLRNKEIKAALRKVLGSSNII
Description: as §1, §2

[4] = biological target: T3, consensus OR4C15 (Homo sapiens, UniProt Q8NGM1, A218G/A270V/E23K/G63A/I200A/I247V/I275T/L152F/L222F/L266F/M197L/N174D/N209I/N278T/Q295N/R137W/R299K/T258A/T88R/V55G/V87E/W233R); assay: Luciferase assay, sulfur compounds; type: cell-based
T3 construct: Flag (N); Rho tag (N); expressed in transfected cells; host or cells: HEK293
T3 sequence (Q8NGM1 1-311 with the stated changes limits assumed): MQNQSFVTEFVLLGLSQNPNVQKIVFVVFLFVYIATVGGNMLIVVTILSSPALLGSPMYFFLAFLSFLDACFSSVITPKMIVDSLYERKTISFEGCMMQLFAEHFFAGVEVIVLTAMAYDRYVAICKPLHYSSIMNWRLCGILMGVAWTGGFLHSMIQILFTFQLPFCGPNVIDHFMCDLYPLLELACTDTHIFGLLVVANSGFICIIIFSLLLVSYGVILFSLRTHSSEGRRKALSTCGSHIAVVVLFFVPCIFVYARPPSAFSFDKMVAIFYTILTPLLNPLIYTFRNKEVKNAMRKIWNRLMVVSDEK
Description: as §1, §2

[5] = biological target: T4, consensus OR4E2 (Homo sapiens, UniProt Q8NGC2, A48T/F285L/G158V/H228Q/I116T/I142V/I197M/I47V/L183P/M219T/M25I/M36V/Q234R/R21W/S209T/S40L/S54R/T201S/T49I/T99A/V118M/V214L); assay: Luciferase assay, sulfur compounds; type: cell-based
T4 construct: Flag (N); Rho tag (N); expressed in transfected cells; host or cells: HEK293
T4 sequence (Q8NGC2 1-312 R21W/M25I/M36V/S40L/I47V/A48T/T49I/S54R/T99A/I116T/V118M/I142V/G158V/L183P/I197M/T201S/S209T/V214L/M219T/H228Q/Q234R/F285L limits assumed): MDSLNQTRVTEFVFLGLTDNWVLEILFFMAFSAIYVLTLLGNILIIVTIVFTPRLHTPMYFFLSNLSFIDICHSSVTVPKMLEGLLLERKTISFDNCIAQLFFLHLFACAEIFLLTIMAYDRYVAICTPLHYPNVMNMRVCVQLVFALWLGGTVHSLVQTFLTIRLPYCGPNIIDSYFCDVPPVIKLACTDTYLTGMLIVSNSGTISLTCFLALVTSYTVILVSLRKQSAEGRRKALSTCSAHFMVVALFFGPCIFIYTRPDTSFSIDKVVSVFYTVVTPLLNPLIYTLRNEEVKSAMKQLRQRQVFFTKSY
Description: as §1, §2

[6] = biological target: T5, consensus OR4K17 (Homo sapiens, UniProt Q8NGC6, A163V/E24Q/F120Y/F158L/G263S/I192T/I205M/I296T/I46V/K226R/L86V/P230S/S297A/V197I/V23I/V81M/V91T); assay: Luciferase assay, sulfur compounds; type: cell-based
T5 construct: expressed in transfected cells; host or cells: HEK293
T5 sequence (Q8NGC6 with tags, fused parts or gaps V23I/E24Q/I46V/V81M/L86V/V91T/F120Y/F158L/A163V/I192T/V197I/I205M/K226R/P230S/G263S/I296T/S297A): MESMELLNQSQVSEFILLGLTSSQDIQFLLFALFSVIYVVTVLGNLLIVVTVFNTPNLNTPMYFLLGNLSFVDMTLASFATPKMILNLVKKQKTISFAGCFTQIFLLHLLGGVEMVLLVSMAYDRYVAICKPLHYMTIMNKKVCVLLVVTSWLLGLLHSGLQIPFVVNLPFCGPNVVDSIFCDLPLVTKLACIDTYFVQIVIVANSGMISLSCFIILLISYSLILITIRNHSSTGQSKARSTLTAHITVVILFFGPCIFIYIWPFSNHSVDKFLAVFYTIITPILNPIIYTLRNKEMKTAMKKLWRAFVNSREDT
Description: as §1, §2

[7] = tested on: HEK293 cells expressing olfactory receptor; assay: Luciferase assay: ligand responsiveness of consensus vs original olfactory receptors; type: cell-based, human; conditions: consensus design
Description: For luciferase assay, a reaction solution was prepared according to composition shown in Table 4, left standing for 20 minutes in a clean bench, and then added to each well of a 96-well plate (Becton, Dickinson and Company). Subsequently, 100 μL of HEK293 cells suspended in DMEM (Nacalai Tesque, Inc.) was inoculated at 2×10^5 cells/cm^2 to each well, and cultured for 24 hours in an incubator kept at 37° C. and 5% CO2. Cells expressing no olfactory receptor (Mock) were provided as a control.
The medium was removed from the cultures prepared in 2), and 75 μL of a test substance solution with a predetermined concentration prepared with a fresh medium was added thereto. The cells were cultured for 4 hours in a CO2 incubator and the luciferase gene was sufficiently expresses in the cells. Luciferase activity was measured using Dual-Glo™ luciferase assay system (Promega Corp.) in accordance with the operation manual of the product. A luminescence value derived from firefly luciferase induced by test substance stimulation in each well of the 96-well plate was divided by a luminescence value derived from Renilla luciferase to calculate a signal, which was then used in analysis. The signal under each transfection condition was normalized with the signal under a stimulation-free condition defined as 0% and the signal by stimulation with 30 μM forskolin defined as 100%, and used as a response (%) in analysis.

[8] = in the presence of a copper ion

OR4E2, sequence (Q8NGC2 whole entry): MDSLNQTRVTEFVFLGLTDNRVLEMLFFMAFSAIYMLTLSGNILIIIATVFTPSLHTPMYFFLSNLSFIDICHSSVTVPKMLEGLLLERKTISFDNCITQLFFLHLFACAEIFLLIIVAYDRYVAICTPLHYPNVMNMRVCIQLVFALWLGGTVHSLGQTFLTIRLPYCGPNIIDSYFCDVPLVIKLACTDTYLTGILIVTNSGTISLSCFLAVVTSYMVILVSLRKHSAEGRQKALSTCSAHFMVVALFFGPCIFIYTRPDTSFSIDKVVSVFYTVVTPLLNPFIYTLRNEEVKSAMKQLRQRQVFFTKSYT

## CC(C)(S)CCO [3-mercapto-3-methylbutanol]
[1]
  response of OR4E2: responds

## C=CCSSSCC=C [diallyl trisulfide]
[1]
  response of OR4E2: responds

## CSC [dimethyl sulfide]
[2]; OR4S2 (original), 30 μM CuCl2, read-out: EC50(μM) with 30 μM CuCl2
  EC50: 22 µM
[2]; [8]
  dose dependence of the response of OR4S2: dose-dependent manner
  response of OR4S2: responded
[3]; consensus OR11H2, 30 μM CuCl2
  EC50: 22 µM
[3]; [8]
  dose dependence of the response of consensus OR11H2: dose-dependent manner
  response of consensus OR11H2: responded
[4]; consensus OR4C15, 30 μM CuCl2, read-out: EC50(μM) with 30 μM CuCl2
  EC50: 414 µM
[4]; [8]
  dose dependence of the response of consensus OR4C15: dose-dependent manner
  response of consensus OR4C15: responded
[5]; consensus OR4E2, 30 μM CuCl2, read-out: EC50(μM) with 30 μM CuCl2
  EC50: 22 µM
[5]; [8]
  dose dependence of the response of consensus OR4E2: dose-dependent manner
  response of consensus OR4E2: responded
[6]; consensus OR4K17, 30 μM CuCl2, read-out: EC50(μM) with 30 μM CuCl2
  EC50: 188 µM
[6]; [8]
  dose dependence of the response of consensus OR4K17: dose-dependent manner
  response of consensus OR4K17: responded

B1: consensus OR2A25 (b): consensus olfactory receptor polypeptide (protein)
chain: MGGNQTSITEFLLLGFPVGPRIQMLLFGLFSLFYVFTLLGNGTILGLISLDSRLHTPMYFFLSHLAVVDIAYACNTVPQMLVNLLHPAKPISFAGCMTQTFLFLSFAHTECLLLVVMSYDRYVAICHPLRYSAIMTWRVCITLALTSWTLGVLLALIHLVLLLPLPFCRPQKINHFFCEIMAVLKLACADTHINEVMVLAGAISVLVGPLSSIVVSYMCILCAILKIQSGEGQRKAFSTCSSHLCVVGLFYGTAIIMYVGPQYGNPKEQKKYLLLFHSLFNPMLNPLIYSLRNSEVKNTLKRMLEKERAL
modifications: OR2A25 consensus-b
notes: consensus olfactory receptor polypeptide
[7]
  ligand responsiveness in comparison with the original human receptor: sufficiently elevated

B2: consensus OR7D4 (c): consensus olfactory receptor polypeptide (protein)
chain: MEAENHTEVSEFLLLGLSEDPELQPLLFGLFLSMYLVTVLGNLLIILAISSDSHLHTPMYFFLSNLSFVDICFISTTVPKMLVNIQAQSKDISYMGCLTQVYFFMIFAGMDNFLLTVMAYDRFVAICHPLHYTVIMNPRLCGLLVLASWFIIFWVSLVHILLMKRLTFCTGTEIPHFFCELAQVLKVACSDTLINNIVLYVATALLGVFPLTGILFSYSQIVSSLMRMSSTKGKYKAFSTCGSHLSVVSLFYGTGLGVYLSSAVTHSSQSSSIASVMYTVVTPMLNPFIYSLRNKDVKGALGRLLSRAASCP
modifications: OR7D4 consensus-c
notes: as for B1
[7]
  ligand responsiveness in comparison with the original human receptor: sufficiently elevated

B3: consensus OR7A17 (a): consensus olfactory receptor polypeptide (protein)
chain: MEPENDTGISEFLLLGLSEEPELQPFLFGLFLSMYLVTVLGNLLIILATISDSHLHTPMYFFLSNLSFADICFISTTVPKMLINIQTQSRVITYAGCITQMCFFVLFGGLDSLLLAVMAYDRFVAICHPLHYTVIMNPRLCGLLVLASWMIAALNSLSQSLMVLWLSFCTDLEIPHFFCELNQVIHLACSDTFLNDMGMYFAAGLLAGGPLAGILYSYSKIVSSIRAISSAQGKYKAFSTCASHLSVVSLFCCTGLGVYLTSAATHNSHTSATASVMYTVATPMLNPFIYSLRNKDIKRALKMSFRGKQ
modifications: OR7A17 consensus-a
notes: as for B1
[7]
  ligand responsiveness in comparison with the original human receptor: elevates responsiveness

B4: consensus OR4S2 (b): consensus olfactory receptor polypeptide (protein)
chain: MEKINNVTEFIFWGLSQSPEVQRVCFVVFLFFYIAIVLGNLLIVLTVCLSNSLKSPMYFFLSFLSFVEICYSSVTAPKMIVDLLAKDKTISYVGCMLQLFFVHFFGCTEIFLLTVMAYDRYVAICKPLHYMTIMNRQTCNKLVLGTWVGGFLHSIIQVLLVVQLPFCGPNVIDHYFCDLHPVLKLACTDTFIVGVVVTANSGTIALGSFVILLISYSIILVSLRKQSAEGRRKALSTCGSHITVVILFFGPCIFMYMRPSTTFSEDKMVAVFYTIITPMLNPLIYTLRNAEVKNAMKKLWGRNVFLEAKGK
modifications: OR4S2 consensus-b
notes: as for B1
[7]
  ligand responsiveness in comparison with the original human receptor: elevates responsiveness
